In publication PMC8486872, “A rational blueprint for the design of chemically-controlled protein switches” (Nature Communications, 2021):
“And” between values parts separate entries of the source, which are not always exact repeats. Equal entries are not always repeated.

Experiments:
[1] = system: SEAP expression in HEK293T cells; experiment: MISO designer cells (CDH-1 + CDH-3 dual switches); assay type: cell-based; parameters: SEAP / Bottom (best-fit value) / Top (best-fit value) / Span (best-fit value): unit not given here; conditions: for logIC50 (best-fit value): drug in nM; for SEAP, Drug-1 turn OFF CDH-1-TF: Fig S13f; for SEAP, Drug-1 turn OFF CDH-1-GEMS: Fig S13g, representative data
Source text: Fig. 5 Orthogonal chemical switches enable implementation of multi-input multi-output control modes in mammalian cells. a Scheme of multi-inputs multi-outputs (MIMO) designer cells where two drugs control two different outputs. b, c Cells were co-transfected with AIR-1/2-GEMS and CDH-3-TF regulate SEAP and Luciferase expression, respectively. […] AIR-1/2-GEMS coupled with SEAP expression circuits were co-transfected with CDH-1/2-TF circuits which control the Luciferase production. Respective drug concentrations ranged from 0.001 nM to 1 µM. […]
We then engineered MISO cells (Fig. 5d) with CDH-1-TF and CDH-3-TF dual switches (Fig. 5e) that encode OFF behaviors controlled by Drug-1 and Drug-3. […] This output behavior is distinct from the typical SISO systems which only show two persistent states (high, low) (Fig. 2c, f). […] This type of output in biological systems could be utilized to produce graded levels of responses that are robust to minor oscillations in drug concentrations, and could be used to dissect fundamental biological processes but also to provide persistent response levels in translational applications.
1-TF and CDH-3-TF circuits. Drug-1 concentrations ranged from 0.001 nM to 1 µM (left) and 1 µM Drug-1 with serial diluted Drug-3 from 0.001 nM to 1 µM (right). g) Quantification of SEAP activity controlled […]
by CDH-1-GEMS and CDH-3-GEMS circuits. […]
Luciferase production (l). b-k) Each data point represents the mean of n = 3 biological replicates, and the dose-dependent curve were fitted using four-parameter nonlinear regression.

[2] = system: JAK/STAT pathway SEAP expression in HEK293T cells; experiment: CDH-GEMS receptor signaling SEAP assay; assay type: cell-based; conditions: Suppl Fig 9b
Source text: To test modularity and performance robustness of the CDHs in different molecular contexts, we inserted these modules in the generalizable extracellular molecule sensor (GEMS) receptor signaling pathway platform[24] and built CDH-GEMS. In these constructs the CDHs are localized extracellularly and function as ectodomain switches, fused to the backbone of the erythropoietin receptor, and an intracellular interleukin 6 receptor domain which activates the JAK/STAT pathway (Fig. 3d). The CDH-GEMS trigger the activation of the JAK/STAT pathway by the dimerization of their subunits. Thus, the drugs are expected to split the CDHs inactivating the signaling pathway as assessed by the expression of the reporter protein SEAP. All three CDH-GEMS were responsive to their respective drugs dynamic response range varied from approximately 6-fold (CDH-2) to 8-fold (CDH-1,3) (Fig. 3e). […] The CDH-GEMS were also reversible upon intermittent drug treatment (Supplementary Fig. 7h, i). Despite that comparisons between CDH-TFs and CDH-GEMS are not straightforward due to differences in the reporter signaling pathways, we observe a general trend for the CDHs to present lower IC50s when used as extracellular modules, which is consistent with overcoming drug permeability issues in cells.
HEK293T cells were maintained in DMEM medium with 10% FBS (Gibco) and Pen/Strep (Thermo Fisher). Cells were maintained and split every two days at around 80% confluence. HEK293T cells were seeded 24 h before transfection, and transfected with the lipofectamine 3000 kit (Thermo Fisher). Plasmids were cotransfected according to the Table S7. For the drug OFF-switch experiments, drugs were added 12 h post transfection and incubated with cells for 24 h before the SEAP detection assay.
Secreted alkaline phosphatase (SEAP) activity (U/L) in cell culture supernatants was quantified by kinetic measurements at 405 nm (1 min/measurement for 30 cycles) of absorbance increase due to phosphatase-mediated hydrolysis of para-nitrophenyl phosphate (pNPP).
Apparent IC50s of SPR drug competition assay were calculated using three-parameter nonlinear regression in GraphPad Prism (Version 8.3.0). Representative data of cellular assays are presented as individual values and mean values (bars). n = 3 refers to biological replicates. All IC50/EC50 values of cellular assays (CDH-TF, CDH-GEMS, AIR-TF and AIR-GEMS) reported were calculated using four-parameter nonlinear regression ± s.d.
Supplementary Figure 9: Comparison of ON-state reporter expression of weak affinity variants of LD3 in CDH-1/2-GEMS platform. a) ON-state expression of CDH-1-GEMS with LD3 and LD3_v3. b) Drug dose-dependent responses in engineered cells determined for the CDH-1-GEMS with LD3 and LD3_v3. c) ON-state expression of CDH-2-GEMS with LD3 and LD3_v3. d) Drug dose-dependent responses in engineered cells determined for the CDH-2-GEMS with LD3 and LD3_v3. In the data shown HEK293T cells were […]
quantification was done 24 hours after drug treatment. a, c) The bar charts show the mean ± s.d. of n = 3 biologically independent samples overlaid with a scatter dot plot of the original data points. b, d) Each […]
parameter nonlinear regression.
(1 picture or pasted object on this page, not shown here)

[3] = Fig5e SEAP, CDH-1-TF, + 1 µM Drug-3, four-parameter fit
[4] = Fig5f SEAP, CDH-1-GEMS, + 1 µM Drug-3, three-parameter fit

CN(C)CC#Cc1ccc(OCCCc2sc(N3CCc4cccc(C(=O)Nc5nc6ccccc6s5)c4C3)nc2C(=O)O)c(F)c1 [Drug-1, A-1155463]
Bottom (best-fit value) [1, 3]: 10.05
HillSlope (best-fit value) [1, 3]: -1.155
Span (best-fit value) [1, 3]: 11.2
Top (best-fit value) [1, 3]: 21.26
logIC50 (best-fit value) [1, 3]: 0.9359
SEAP ([1]; Fig5e, turn OFF CDH-1-TF, 0.001 nM + 1 µM Drug-3): 16.8327 and 22.6453 and 20.005
SEAP ([1]; Fig5e, turn OFF CDH-1-TF, 0.01 nM + 1 µM Drug-3): 20.9002 and 22.3965 and 21.4625
SEAP ([1]; Fig5e, turn OFF CDH-1-TF, 0.1 nM + 1 µM Drug-3): 21.6157 and 22.7521 and 21.3586
SEAP ([1]; Fig5e, turn OFF CDH-1-TF, 1 nM + 1 µM Drug-3): 21.4038 and 20.3272 and 21.0988
SEAP ([1]; Fig5e, turn OFF CDH-1-TF, 10 nM + 1 µM Drug-3): 13.4848 and 15.392 and 15.5387
SEAP ([1]; Fig5e, turn OFF CDH-1-TF, 100 nM + 1 µM Drug-3): 11.183 and 12.1962 and 11.7139
SEAP ([1]; Fig5e, turn OFF CDH-1-TF, 1000 nM + 1 µM Drug-3): 9.72 and 8.497 and 9.661
Bottom (best-fit value) [1, 4]: 12.41
Span (best-fit value) [1, 4]: 42.02
Top (best-fit value) [1, 4]: 54.44
logIC50 (best-fit value) [1, 4]: 0.8832
SEAP ([1]; Fig5f, turn OFF CDH-1-GEMS, 0.001 nM + 1 µM Drug-3): 55.6364 and 50.5517 and 48.8723
SEAP ([1]; Fig5f, turn OFF CDH-1-GEMS, 0.01 nM + 1 µM Drug-3): 61.2598 and 59.0443 and 45.7788
SEAP ([1]; Fig5f, turn OFF CDH-1-GEMS, 0.1 nM + 1 µM Drug-3): 46.4102 and 62.6516 and 50.3302
SEAP ([1]; Fig5f, turn OFF CDH-1-GEMS, 1 nM + 1 µM Drug-3): 57.5516 and 40.155 and 62.0361
SEAP ([1]; Fig5f, turn OFF CDH-1-GEMS, 10 nM + 1 µM Drug-3): 22.2271 and 39.6828 and 23.9896
SEAP ([1]; Fig5f, turn OFF CDH-1-GEMS, 100 nM + 1 µM Drug-3): 14.7907 and 24.2066 and 13.0137
SEAP ([1]; Fig5f, turn OFF CDH-1-GEMS, 1000 nM + 1 µM Drug-3): 8.999 and 11.1728 and 14.7089
SEAP, Drug-1 turn OFF CDH-1-TF ([1]; Drug-1 0.001 nM): 37.8605 U/L and 37.6407 U/L and 37.2767 U/L
SEAP, Drug-1 turn OFF CDH-1-TF ([1]; Drug-1 0.01 nM): 46.3191 U/L and 36.6964 U/L and 37.3836 U/L
SEAP, Drug-1 turn OFF CDH-1-TF ([1]; Drug-1 0.1 nM): 40.0956 U/L and 39.4221 U/L and 42.0031 U/L
SEAP, Drug-1 turn OFF CDH-1-TF ([1]; Drug-1 1 nM): 42.0045 U/L and 40.1385 U/L and 32.8382 U/L
SEAP, Drug-1 turn OFF CDH-1-TF ([1]; Drug-1 10 nM): 31.0901 U/L and 30.8325 U/L and 26.6542 U/L
SEAP, Drug-1 turn OFF CDH-1-TF ([1]; Drug-1 100 nM): 22.4541 U/L and 19.9215 U/L and 18.0282 U/L
SEAP, Drug-1 turn OFF CDH-1-TF ([1]; Drug-1 1000 nM): 23.3552 U/L and 18.7039 U/L and 14.93 U/L
SEAP, Drug-1 turn OFF CDH-1-GEMS ([1]; Drug-1 0.001 nM): 63.1346 U/L and 76.9207 U/L and 59.8899 U/L
SEAP, Drug-1 turn OFF CDH-1-GEMS ([1]; Drug-1 0.01 nM): 62.4115 U/L and 58.8113 U/L and 53.5466 U/L
SEAP, Drug-1 turn OFF CDH-1-GEMS ([1]; Drug-1 0.1 nM): 64.3309 U/L and 62.8524 U/L and 59.3961 U/L
SEAP, Drug-1 turn OFF CDH-1-GEMS ([1]; Drug-1 1 nM): 47.8019 U/L and 47.3132 U/L and 39.8687 U/L
SEAP, Drug-1 turn OFF CDH-1-GEMS ([1]; Drug-1 10 nM): 42.6016 U/L and 46.6627 U/L and 42.2581 U/L
SEAP, Drug-1 turn OFF CDH-1-GEMS ([1]; Drug-1 100 nM): 43.3282 U/L and 43.4567 U/L and 33.8379 U/L
SEAP, Drug-1 turn OFF CDH-1-GEMS ([1]; Drug-1 1000 nM): 36.4444 U/L and 23.5312 U/L and 44.7329 U/L
SEAP % ([2]; BclxL:LD3, 0.001 nM): 18.0122% and 17.4443% and 16.8298%
SEAP % ([2]; BclxL:LD3, 0.005 nM): 16.6899% and 17.1312% and 17.1781%
SEAP % ([2]; BclxL:LD3, 0.01 nM): 17.4444% and 15.5469% and 16.1047%
SEAP % ([2]; BclxL:LD3, 0.05 nM): 15.1537% and 15.6285% and 14.5618%
SEAP % ([2]; BclxL:LD3, 0.1 nM): 14.6667% and 14.1653% and 14.4377%
SEAP % ([2]; BclxL:LD3, 0.5 nM): 13.4918% and 13.7573% and 13.7645%
SEAP % ([2]; BclxL:LD3, 1 nM): 11.4623% and 11.7897% and 11.4884%
SEAP % ([2]; BclxL:LD3, 5 nM): 7.87% and 8.2239% and 7.705%
SEAP % ([2]; BclxL:LD3, 10 nM): 5.487% and 5.0968% and 5.0693%
SEAP % ([2]; BclxL:LD3, 50 nM): 4.04% and 4.459% and 3.462%
SEAP % ([2]; BclxL:LD3, 100 nM): 4.1212% and 3.83% and 3.424%
SEAP % ([2]; BclxL:LD3, 500 nM): 3.2684% and 3.043% and 3.776%
SEAP % ([2]; BclxL:LD3, 1000 nM): 3.47% and 3.522% and 3.463%
SEAP % ([2]; BclxL:LD3_v3, 0.001 nM): 16.3076% and 17.437% and 16.859%
SEAP % ([2]; BclxL:LD3_v3, 0.005 nM): 14.9031% and 15.6748% and 15.9103%
SEAP % ([2]; BclxL:LD3_v3, 0.01 nM): 13.8744% and 14.7636% and 15.1685%
SEAP % ([2]; BclxL:LD3_v3, 0.05 nM): 12.8457% and 12.494% and 13.0699%
SEAP % ([2]; BclxL:LD3_v3, 0.1 nM): 9.936% and 9.732% and 9.834%
SEAP % ([2]; BclxL:LD3_v3, 0.5 nM): 8.327% and 7.455% and 7.64%
SEAP % ([2]; BclxL:LD3_v3, 1 nM): 9.561% and 8.788% and 8.726%
SEAP % ([2]; BclxL:LD3_v3, 5 nM): 4.582% and 4.8104% and 5.942%
SEAP % ([2]; BclxL:LD3_v3, 10 nM): 4.563% and 3.586% and 4.47%
SEAP % ([2]; BclxL:LD3_v3, 50 nM): 5.174% and 5.025% and 4.8595%
SEAP % ([2]; BclxL:LD3_v3, 100 nM): 4.401% and 4.122% and 4.248%
SEAP % ([2]; BclxL:LD3_v3, 500 nM): 4.318% and 3.762% and 3.577%
SEAP % ([2]; BclxL:LD3_v3, 1000 nM): 4.822% and 4.215% and 3.859%
